The values below come from US10905738B2, “Synthetic peptides, prodrugs, pharmaceutical compositions and uses” (Biozeus Desenvolvimento De Produtos Biofarmacêuticos, priority 2018, dated 2021).

This assay concerns smooth muscle of pulmonary arteries. Briefly: relaxation of pulmonary arteries contracted with phenylephrine ex vivo. The note with it: n = 9; for pEC50: pulmonary arteries contracted with phenylephrine, peptides 1 nM-10 μM, mean±SEM; for Effectiveness (Emax) (%): relaxation percentage related to maximum phenylephrine contraction. Details: species or system male Wistar rats. The source says:
The ex vivo model of pulmonary artery smooth muscle contraction with phenylephrine is very useful to screen candidate compounds for lung diseases that demand vasodilating effects (ALENCAR, A. K., PEREIRA, S. L., MONTAGNOLI, T. L., MAIA, R. C., KUMMERLE, A. E., LANDGRAF, S. S., CARUSO-NEVES, C., FERRAZ, E. B., TESCH, R., NASCIMENTO, J. H., DE SANT'ANNA, C. M., FRAGA, C. A., BARREIRO, E. J., SUDO, R. T., ZAPATA-SUDO, G. Beneficial effects of a novel agonist of the adenosine A2A receptor on monocrotaline-induced pulmonary hypertension in rats. Br J Pharmacol, 169: 953-62. 2013).
Rats were anesthetized with midazolam and ketamine (2 mg/kg and 100 mg/kg, respectively) via intraperitoneal administration. After infusion of a lethal dose of sodium thiopental via intraperitoneal administration (50 mg/kg), the trunk of the pulmonary artery was carefully removed via sternotomy. The pulmonary artery was carefully dissected and the connective tissue removed. The arteries were connected to a force transductor, positioned in vertical chambers filled with Krebs solution, oxygenated and kept at 37° C.
After a stabilization period of 2 hours at a tension of 1.5 grams, the arteries were exposed to increasing doses of phenylephrine (1 nM-10 μM) in order to obtain maximum smooth muscle contraction and then exposed to increasing doses of selected peptides in the concentrations of 1 nM-10 μM each (n=9). The tension generated by the pulmonary artery was evaluated at intervals of 5 minutes for each dose (ALENCAR, A. K., PEREIRA, S. L., MONTAGNOLI, T. L., MAIA, R. C., KUMMERLE, A. E., LANDGRAF, S. S., CARUSO-NEVES, C., FERRAZ, E. B., TESCH, R., NASCIMENTO, J. H., DE SANT'ANNA, C. M., FRAGA, C. A., BARREIRO, E. J., SUDO, R. T., ZAPATA-SUDO, G. Beneficial effects of a novel agonist of the adenosine A2A receptor on monocrotaline-induced pulmonary hypertension in rats. Br J Pharmacol 169: 953-62. 2013; ALENCAR, A. K., PEREIRA, S. L., DA SILVA, F. E., MENDES, L. V., CUNHA VDO, M., LIMA, L. M., MONTAGNOLI, T. L., CARUSO-NEVES, C., FERRAZ, E. B., TESCH, R., NASCIMENTO, J. H., SANT'ANNA, C. M., FRAGA, C. A., BARREIRO, E. J., SUDO, R. T., ZAPATA-SUDO, G. N-acylhydrazone derivative ameliorates monocrotaline-induced pulmonary hypertension through the modulation of adenosine AA2R activity. International Journal of Cardiology, 173(2): 154-62. 2014).
Potency values are shown as the negative logarithm of the concentration that reduced the voltage to 50% of the maximum phenylephrine-induced contraction (pEC50), and they are expressed as mean±SEM. The maximum contraction achieved in a given artery was considered to be 100% of contraction, and the effectiveness (Emax) was expressed as the relaxation percentage related to this maximum value. The results were calculated from at least 3 independent tests using the sigmoid non-linear regression equation, and the statistical analysis of the concentration curve was done by performing a nonlinear fit of the logarithmic of the agonist versus response. All the above calculations were performed on the software Graph Prism 5.0 (GraphPad Software, La Jolla, Calif., USA). Tension analysis was performed on the software LabChart7 (AD Instruments, Sydney, Australia). As a cutoff to determine biological significance, we considered pulmonary artery relaxation values above 30% as biologically relevant, considered those as active and then calculated the Emax values (SUN, C. K., LIN, Y. C., YUEN, C. M., CHUA, S., CHANG, L. T., SHEU, J. J., LEE, F. Y., FU, M., LEU, S., YIP, H. K. Enhanced protection against pulmonary hypertension with sildenafil and endothelial progenitor cell in rats. International journal of cardiology, 162(1): 45-58. 2012; ALENCAR, A. K., PEREIRA, S. L., DA SILVA, F. E., MENDES, L. V., CUNHA VDO, M., LIMA, L. M., MONTAGNOLI, T. L., CARUSO-NEVES, C., FERRAZ, E. B., TESCH, R., NASCIMENTO, J. H., SANT'ANNA, C. M., FRAGA, C. […]

The structures appear in SMILES notation. Where a SMILES comes first, the peptide text is derived from it.

Turning to `CC[C@H](C)[C@H](NC(=O)[C@H](Cc1c[nH]c2ccccc12)NC(=O)[C@H](Cc1ccccc1)NC(C)=O)C(=O)N[C@@H](C)C(=O)N[C@@H](Cc1c[nH]c2ccccc12)C(=O)N[C@@H](Cc1ccc(O)cc1)C(=O)N[C@@H](CCCCN)C(=O)N[C@@H](CC(C)C)C(=O)N[C@@H](C)C(N)=O` [SEQ ID NO: 19, Ac-Phe-Trp-Ile-Ala-Trp-Tyr-Lys-Leu-Ala-NH2] (Ac-FWIAWYKLA-NH2), the pEC50 was found to be 6.9 ± 6.55 and the “Effectiveness (Emax) (%)” value was 24% ± 9.71.
The corresponding values for `CC[C@H](C)[C@H](NC(C)=O)C(=O)N[C@@H](C)C(=O)N[C@@H](Cc1c[nH]c2ccccc12)C(=O)N[C@@H](Cc1ccc(O)cc1)C(=O)N[C@@H](CCCCN)C(N)=O` [SEQ ID NO: 24, Ac-Ile-Ala-Trp-Tyr-Lys-NH2] (Ac-IAWYK-NH2) are 4.4 ± 6.4 and 5% ± 5.96.

A word on the pEC50: it is −log10 of the EC50, conventionally taken in molar units. A higher pEC50 goes with a small EC50.
